Tests used:
[1] = molecular target: T1, Serine/threonine-protein kinase 3 (Homo sapiens) (UniProt Q13188); conditions: at 10 µM
T1 sequence (whole entry): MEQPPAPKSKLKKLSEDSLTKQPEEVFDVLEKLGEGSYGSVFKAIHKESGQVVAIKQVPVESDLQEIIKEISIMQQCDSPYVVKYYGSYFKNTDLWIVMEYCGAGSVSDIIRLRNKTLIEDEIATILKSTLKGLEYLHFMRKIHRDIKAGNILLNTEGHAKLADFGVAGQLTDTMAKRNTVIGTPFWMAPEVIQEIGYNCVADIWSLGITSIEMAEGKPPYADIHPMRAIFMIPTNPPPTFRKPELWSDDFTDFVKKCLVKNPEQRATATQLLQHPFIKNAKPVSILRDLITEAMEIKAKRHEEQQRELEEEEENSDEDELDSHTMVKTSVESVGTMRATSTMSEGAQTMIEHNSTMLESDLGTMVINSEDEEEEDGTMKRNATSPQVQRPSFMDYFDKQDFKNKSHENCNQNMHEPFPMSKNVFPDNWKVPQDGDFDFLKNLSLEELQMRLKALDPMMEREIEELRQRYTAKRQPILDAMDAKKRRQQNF

[2] = system: Epidermal growth factor receptor (Homo sapiens), P00533 [UNDEFINED MUTATION]; test: Selectivity interaction (KinomeScan (DiscoverX)) EUB0000655a EGFR; conditions: at 10 µM
Sequence of Epidermal growth factor receptor (Homo sapiens), P00533 [UNDEFINED MUTATION] (P00533 whole entry, looked up, change not shown): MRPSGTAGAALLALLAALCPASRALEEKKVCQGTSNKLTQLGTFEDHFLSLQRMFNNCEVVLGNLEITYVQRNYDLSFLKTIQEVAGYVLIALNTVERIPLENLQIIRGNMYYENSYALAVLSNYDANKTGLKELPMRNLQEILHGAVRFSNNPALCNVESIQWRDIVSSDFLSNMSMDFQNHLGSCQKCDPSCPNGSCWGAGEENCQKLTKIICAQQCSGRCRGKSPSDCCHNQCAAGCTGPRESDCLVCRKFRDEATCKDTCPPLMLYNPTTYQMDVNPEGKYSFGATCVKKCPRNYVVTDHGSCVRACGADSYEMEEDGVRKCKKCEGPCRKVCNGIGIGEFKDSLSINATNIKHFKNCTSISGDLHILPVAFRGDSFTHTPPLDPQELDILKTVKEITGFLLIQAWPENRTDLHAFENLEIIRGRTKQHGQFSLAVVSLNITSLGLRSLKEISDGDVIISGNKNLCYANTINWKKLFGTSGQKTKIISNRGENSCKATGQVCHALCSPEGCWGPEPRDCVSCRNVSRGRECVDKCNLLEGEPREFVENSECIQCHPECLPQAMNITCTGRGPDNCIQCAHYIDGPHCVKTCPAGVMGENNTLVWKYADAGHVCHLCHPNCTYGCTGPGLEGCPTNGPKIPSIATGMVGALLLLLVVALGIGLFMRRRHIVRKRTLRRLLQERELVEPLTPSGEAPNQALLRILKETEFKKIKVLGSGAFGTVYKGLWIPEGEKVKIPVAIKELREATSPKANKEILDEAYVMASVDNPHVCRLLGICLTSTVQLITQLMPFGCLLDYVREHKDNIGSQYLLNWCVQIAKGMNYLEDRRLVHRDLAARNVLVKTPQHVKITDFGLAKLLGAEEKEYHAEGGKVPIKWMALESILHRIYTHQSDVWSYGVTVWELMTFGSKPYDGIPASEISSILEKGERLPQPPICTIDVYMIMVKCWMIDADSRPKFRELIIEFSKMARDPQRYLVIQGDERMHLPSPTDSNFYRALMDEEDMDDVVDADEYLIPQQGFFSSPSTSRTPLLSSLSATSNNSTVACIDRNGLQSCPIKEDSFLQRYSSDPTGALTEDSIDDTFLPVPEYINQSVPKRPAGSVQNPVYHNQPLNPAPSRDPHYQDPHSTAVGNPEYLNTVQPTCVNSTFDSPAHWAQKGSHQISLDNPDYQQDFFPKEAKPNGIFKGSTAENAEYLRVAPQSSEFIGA

[3] = molecular target: Casein kinase II subunit alpha (Homo sapiens, UniProt P68400); test: Selectivity interaction (Kinase panel (KiNativ target engagement assay in Jurkat cells)) EUB0001635a CSNK2A1; format: cell-based; conditions: Selectivity number of off-targets 0.0, Selectivity number of targets 233.0, Source Knowledge https://www.sciencedirect.com/science/article/pii/S2451945619300674?via%3Dihub, at 1 µM
[4] = molecular target: T2, Cyclin-dependent kinase-like 2 (Homo sapiens) (UniProt Q92772); test: Selectivity interaction (KINOMEscan (DiscoverX)) EUB0001868a CDKL2; conditions: at 1 µM
T2 sequence (whole entry): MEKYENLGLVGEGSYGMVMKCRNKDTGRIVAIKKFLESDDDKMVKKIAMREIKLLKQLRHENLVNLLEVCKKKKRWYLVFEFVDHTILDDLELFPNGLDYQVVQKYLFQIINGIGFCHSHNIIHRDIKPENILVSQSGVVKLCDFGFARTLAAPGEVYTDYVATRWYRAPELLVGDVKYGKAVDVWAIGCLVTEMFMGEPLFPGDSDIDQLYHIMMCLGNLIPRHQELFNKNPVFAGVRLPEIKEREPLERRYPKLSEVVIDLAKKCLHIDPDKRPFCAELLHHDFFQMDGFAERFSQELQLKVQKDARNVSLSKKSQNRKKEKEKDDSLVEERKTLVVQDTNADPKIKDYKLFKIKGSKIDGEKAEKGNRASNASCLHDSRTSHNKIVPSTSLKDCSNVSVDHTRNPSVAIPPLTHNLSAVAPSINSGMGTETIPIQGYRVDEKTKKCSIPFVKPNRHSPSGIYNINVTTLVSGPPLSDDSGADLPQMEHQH

[5] = molecular target: RAC-beta serine/threonine-protein kinase (Homo sapiens) (UniProt P31751); test: Selectivity interaction (Millipore kinase profiler) EUB0000124b AKT2; conditions: at 10 µM
Sequence of RAC-beta serine/threonine-protein kinase (Homo sapiens) (P31751 whole entry): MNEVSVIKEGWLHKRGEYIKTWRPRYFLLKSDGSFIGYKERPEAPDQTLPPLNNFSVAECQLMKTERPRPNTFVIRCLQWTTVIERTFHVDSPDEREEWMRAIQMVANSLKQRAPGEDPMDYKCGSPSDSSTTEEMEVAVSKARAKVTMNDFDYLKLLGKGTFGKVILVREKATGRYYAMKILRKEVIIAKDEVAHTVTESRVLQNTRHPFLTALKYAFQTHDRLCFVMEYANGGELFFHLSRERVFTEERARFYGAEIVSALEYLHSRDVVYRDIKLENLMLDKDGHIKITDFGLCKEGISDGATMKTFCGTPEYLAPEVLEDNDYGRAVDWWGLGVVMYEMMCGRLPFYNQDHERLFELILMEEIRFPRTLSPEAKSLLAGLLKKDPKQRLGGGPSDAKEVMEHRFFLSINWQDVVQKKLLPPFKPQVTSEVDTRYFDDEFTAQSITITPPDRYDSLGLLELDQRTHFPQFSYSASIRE

[6] = molecular target: Serine/threonine-protein kinase Chk2 (Homo sapiens) (UniProt O96017); test: Selectivity interaction (Millipore kinase profiler) EUB0000124b CHEK2; conditions: at 10 µM
Sequence of Serine/threonine-protein kinase Chk2 (Homo sapiens) (O96017 whole entry): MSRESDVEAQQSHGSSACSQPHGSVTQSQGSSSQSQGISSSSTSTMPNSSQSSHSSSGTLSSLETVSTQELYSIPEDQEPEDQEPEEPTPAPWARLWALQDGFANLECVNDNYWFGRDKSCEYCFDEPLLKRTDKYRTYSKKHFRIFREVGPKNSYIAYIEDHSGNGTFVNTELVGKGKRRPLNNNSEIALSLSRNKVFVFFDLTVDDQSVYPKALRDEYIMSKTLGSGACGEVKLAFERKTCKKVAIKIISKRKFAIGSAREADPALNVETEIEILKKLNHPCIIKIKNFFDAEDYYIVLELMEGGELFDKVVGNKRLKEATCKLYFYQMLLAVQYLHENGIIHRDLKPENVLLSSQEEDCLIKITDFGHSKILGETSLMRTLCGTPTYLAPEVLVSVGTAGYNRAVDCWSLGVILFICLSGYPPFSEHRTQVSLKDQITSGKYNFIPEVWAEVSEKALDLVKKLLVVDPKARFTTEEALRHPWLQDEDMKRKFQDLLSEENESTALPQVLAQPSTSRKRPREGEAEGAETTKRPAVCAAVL

[7] = molecular target: Serine/threonine-protein kinase 38 (Homo sapiens) (UniProt Q15208); test: Selectivity interaction (ActivX KiNativ screen (kinase selectivity in THP-1 cell lysates)) EUB0000639a STK38; format: subcellular; conditions: lysate, at 0.04 µM
Sequence of Serine/threonine-protein kinase 38 (Homo sapiens) (Q15208 2-465 limits assumed): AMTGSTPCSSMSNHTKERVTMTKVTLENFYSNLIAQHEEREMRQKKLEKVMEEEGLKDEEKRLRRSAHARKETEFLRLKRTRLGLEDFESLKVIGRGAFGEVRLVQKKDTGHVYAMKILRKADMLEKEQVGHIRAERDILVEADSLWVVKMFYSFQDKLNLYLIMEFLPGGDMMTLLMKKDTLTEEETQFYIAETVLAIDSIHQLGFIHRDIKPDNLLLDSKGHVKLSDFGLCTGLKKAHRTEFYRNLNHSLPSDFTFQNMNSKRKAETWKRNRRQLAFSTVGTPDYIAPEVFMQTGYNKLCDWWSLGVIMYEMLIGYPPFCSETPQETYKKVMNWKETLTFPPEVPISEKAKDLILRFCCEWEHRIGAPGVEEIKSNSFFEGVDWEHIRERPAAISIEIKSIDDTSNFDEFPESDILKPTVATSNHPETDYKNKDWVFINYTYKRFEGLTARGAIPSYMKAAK

[8] = molecular target: Serine/threonine-protein kinase PAK 6 (Homo sapiens) (UniProt Q9NQU5); test: Selectivity interaction (KinomeScan (DiscoverX)) EUB0000607a PAK6; conditions: at 10 µM
Sequence of Serine/threonine-protein kinase PAK 6 (Homo sapiens) (Q9NQU5 whole entry, looked up): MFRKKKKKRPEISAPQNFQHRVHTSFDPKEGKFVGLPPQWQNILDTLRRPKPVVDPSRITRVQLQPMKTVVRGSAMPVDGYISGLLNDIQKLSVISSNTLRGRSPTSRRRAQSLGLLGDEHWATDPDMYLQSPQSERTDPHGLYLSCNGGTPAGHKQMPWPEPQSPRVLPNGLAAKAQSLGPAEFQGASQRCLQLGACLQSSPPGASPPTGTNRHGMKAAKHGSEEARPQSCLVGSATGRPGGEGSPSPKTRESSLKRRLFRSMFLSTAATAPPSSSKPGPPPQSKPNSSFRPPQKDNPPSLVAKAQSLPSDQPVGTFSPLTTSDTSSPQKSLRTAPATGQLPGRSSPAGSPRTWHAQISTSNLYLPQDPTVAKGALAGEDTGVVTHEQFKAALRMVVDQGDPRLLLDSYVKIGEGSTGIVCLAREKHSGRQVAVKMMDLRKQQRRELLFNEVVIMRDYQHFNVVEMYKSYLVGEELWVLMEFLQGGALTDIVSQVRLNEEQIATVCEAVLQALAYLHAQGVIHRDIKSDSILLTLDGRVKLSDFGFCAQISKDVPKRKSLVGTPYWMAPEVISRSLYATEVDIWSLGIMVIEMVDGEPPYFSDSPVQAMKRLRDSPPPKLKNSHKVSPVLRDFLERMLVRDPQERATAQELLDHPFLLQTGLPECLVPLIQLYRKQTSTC

[9] = molecular target: Serine/threonine-protein kinase PAK 3 (Homo sapiens) (UniProt O75914); test: Selectivity interaction (KinomeScan (DiscoverX)) EUB0000595a PAK3; conditions: at 10 µM
[10] = Selectivity interaction (KinomeScan (DiscoverX)) EUB0000045b CDK2H; conditions: at 1 µM
[11] = molecular target: Phosphatidylinositol 4,5-bisphosphate 3-kinase catalytic subunit alpha isoform (Homo sapiens) (UniProt P42336); test: Selectivity interaction (Kinase panel (Eurofins)) EUB0001564a PIK3CA; conditions: at 1 µM
Sequence of Phosphatidylinositol 4,5-bisphosphate 3-kinase catalytic subunit alpha isoform (Homo sapiens) (P42336 whole entry, canonical isoform): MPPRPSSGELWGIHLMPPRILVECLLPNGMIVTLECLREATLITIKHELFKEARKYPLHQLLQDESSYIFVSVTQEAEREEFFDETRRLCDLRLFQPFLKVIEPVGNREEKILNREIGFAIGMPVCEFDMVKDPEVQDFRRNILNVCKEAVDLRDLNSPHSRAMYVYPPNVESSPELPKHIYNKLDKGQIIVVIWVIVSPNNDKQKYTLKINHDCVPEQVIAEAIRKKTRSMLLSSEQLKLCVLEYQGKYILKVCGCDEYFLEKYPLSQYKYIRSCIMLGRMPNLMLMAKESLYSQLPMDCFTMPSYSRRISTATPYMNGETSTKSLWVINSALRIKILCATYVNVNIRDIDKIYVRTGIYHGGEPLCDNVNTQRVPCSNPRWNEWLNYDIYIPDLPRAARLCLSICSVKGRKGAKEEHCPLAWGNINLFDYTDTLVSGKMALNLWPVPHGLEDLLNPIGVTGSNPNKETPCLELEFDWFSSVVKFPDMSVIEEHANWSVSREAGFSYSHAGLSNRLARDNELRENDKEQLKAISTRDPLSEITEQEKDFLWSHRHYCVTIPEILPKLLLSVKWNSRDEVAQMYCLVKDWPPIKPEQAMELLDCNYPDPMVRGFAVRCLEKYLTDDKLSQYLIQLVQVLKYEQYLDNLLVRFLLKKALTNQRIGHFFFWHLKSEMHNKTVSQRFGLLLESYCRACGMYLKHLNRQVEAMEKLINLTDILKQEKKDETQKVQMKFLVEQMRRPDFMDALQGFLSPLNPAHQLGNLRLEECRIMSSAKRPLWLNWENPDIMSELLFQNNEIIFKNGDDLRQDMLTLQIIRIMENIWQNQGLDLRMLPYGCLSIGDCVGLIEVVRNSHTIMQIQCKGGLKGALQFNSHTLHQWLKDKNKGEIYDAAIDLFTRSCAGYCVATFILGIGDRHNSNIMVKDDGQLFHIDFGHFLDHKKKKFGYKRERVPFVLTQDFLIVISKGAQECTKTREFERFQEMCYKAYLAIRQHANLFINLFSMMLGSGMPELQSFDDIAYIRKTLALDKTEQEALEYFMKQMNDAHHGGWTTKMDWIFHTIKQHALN

[12] = molecular target: Histamine H2 receptor (Homo sapiens) (UniProt P25021); test: Selectivity interaction (Eurofins CEREP Diversity Profile (receptors and ion channels)) EUB0000279b HRH2; conditions: at 10 µM
[13] = molecular target: G protein-coupled receptor kinase 4 (Homo sapiens) (UniProt P32298); test: Selectivity interaction (Ambit KINOMEscan and KiNATiv profiling in Jurkat cells) EUB0000090b GRK4; format: cell-based; conditions: at 1 µM
Sequence of G protein-coupled receptor kinase 4 (Homo sapiens) (P32298 whole entry, looked up): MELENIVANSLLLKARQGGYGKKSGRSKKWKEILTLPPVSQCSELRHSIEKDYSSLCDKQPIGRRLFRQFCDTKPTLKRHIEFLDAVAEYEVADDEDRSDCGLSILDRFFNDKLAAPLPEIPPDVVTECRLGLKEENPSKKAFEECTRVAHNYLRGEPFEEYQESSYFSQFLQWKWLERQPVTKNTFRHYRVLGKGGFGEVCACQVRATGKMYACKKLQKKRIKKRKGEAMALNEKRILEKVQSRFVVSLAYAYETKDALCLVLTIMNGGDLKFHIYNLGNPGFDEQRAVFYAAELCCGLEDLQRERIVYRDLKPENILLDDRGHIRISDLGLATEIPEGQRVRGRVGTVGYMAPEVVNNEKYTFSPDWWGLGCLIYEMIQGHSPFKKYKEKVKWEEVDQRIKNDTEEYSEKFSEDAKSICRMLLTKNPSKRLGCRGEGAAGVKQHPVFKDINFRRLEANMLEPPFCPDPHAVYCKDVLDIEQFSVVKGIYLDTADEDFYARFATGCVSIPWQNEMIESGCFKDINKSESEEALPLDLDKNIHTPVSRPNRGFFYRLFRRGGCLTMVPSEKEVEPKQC

[14] = molecular target: T3, Cytoplasmic tyrosine-protein kinase BMX (Homo sapiens) (UniProt P51813); test: Selectivity interaction (Kinase screening (Nanosyn)) EUB0000604a BMX
T3 sequence (whole entry): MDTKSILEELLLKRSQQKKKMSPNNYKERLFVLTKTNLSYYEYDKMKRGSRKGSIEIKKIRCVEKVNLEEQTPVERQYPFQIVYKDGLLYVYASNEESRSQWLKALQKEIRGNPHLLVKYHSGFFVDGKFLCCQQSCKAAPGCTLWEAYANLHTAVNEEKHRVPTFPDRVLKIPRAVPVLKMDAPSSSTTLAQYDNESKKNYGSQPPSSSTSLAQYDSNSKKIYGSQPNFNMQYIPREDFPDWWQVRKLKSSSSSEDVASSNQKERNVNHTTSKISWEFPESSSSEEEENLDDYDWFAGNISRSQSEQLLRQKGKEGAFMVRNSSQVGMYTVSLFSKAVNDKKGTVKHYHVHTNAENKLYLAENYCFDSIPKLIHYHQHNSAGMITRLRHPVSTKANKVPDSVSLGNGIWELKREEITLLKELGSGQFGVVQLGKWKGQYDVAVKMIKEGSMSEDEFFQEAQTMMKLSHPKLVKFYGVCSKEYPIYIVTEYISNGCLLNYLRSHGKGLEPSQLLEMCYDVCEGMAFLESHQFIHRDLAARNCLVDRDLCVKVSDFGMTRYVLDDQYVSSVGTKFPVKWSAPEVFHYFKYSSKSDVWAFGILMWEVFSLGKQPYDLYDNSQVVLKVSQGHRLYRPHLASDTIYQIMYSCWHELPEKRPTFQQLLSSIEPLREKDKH

CCN(CC)CCCCNc1ncc2cc(-c3cc(OC)cc(OC)c3)c(NC(=O)NC(C)(C)C)nc2n1
% of control [1]: 100%

CN(C)CCOc1ccc(-c2nc(-c3ccncc3)c(-c3ccc4c(c3)CC/C4=N\O)[nH]2)cc1
% of control [2]: 54%

C=CC(=O)Nc1ccc(C(=O)Nc2[nH]nc3c2CN(C(=O)N[C@H](CN(C)C)c2ccccc2)C3(C)C)cc1
% of engagement [3]: -4.8%

Cc1cc(-c2ccnc(Nc3cnn(C)c3)n2)ccc1CNC(=O)N1CC(OC(C)C)C1
% of control [4]: 15%

CC(=O)Nc1cccc(-n2c(=O)n(C3CC3)c(=O)c3c(Nc4ccc(I)cc4F)n(C)c(=O)c(C)c32)c1
% of control [5]: 103% | % of control [6]: 98%

CC[C@@H]1[C@H](F)C(=O)N[C@@H]1COc1nccc2cc(C(N)=O)c(OC)cc12 [ZIMLOVISERTIB]
% of inhibition [7]: -3.9%

CNC(=O)Nc1ccc(-c2nc(N3CC4CCC(C3)O4)c3cnn(C4CCC5(CC4)OCCO5)c3n2)cc1
% of control [8]: 100%

COCC(=O)NC/C=C/c1ccc2ncnc(Nc3ccc(Oc4ccc(C)nc4)c(C)c3)c2c1 [CP-724714]
% of control [9]: 70%

C=CC(=O)Nc1cc(-n2c(=O)ccc3cnc4ccc(-c5ccc(NS(C)(=O)=O)cc5)cc4c32)ccc1C
% of control [10]: 100%

CC[C@@H](Nc1c(C#N)c(-c2ccc(-c3cccc(C)c3F)cc2)nc2cnccc12)C(=O)O [BAY-091]
% of inhibition [11]: 30.9%

CC(=O)c1cc(-c2ccccc2OCC2CC2)c2ncccn12
% of control [12]: 115%

CN(C)C/C=C/C(=O)Nc1ccc(C(=O)N2CCCC(Nc3ncc(Cl)c(-c4c[nH]c5ccccc45)n3)C2)cc1 (centres undefined)
% of control [13]: 99%

Cc1cnc(Nc2ccc(F)cc2Cl)nc1-c1c[nH]c(C(=O)N[C@H](CO)c2cccc(Cl)c2)c1
% of inhibition [14]: 3%

Reference: ChEMBL document CHEMBL5465560, “Selectivity Literature for EUbOPEN Chemogenomic Library” (2024)
